The assay concerns the target glucose-6-phosphate dehydrogenase-6-phosphogluconolactonase (Plasmodium falciparum 3D7). Briefly: PfG6PD enzyme inhibitors, kinetic NADPH readout, dose response, orthogonal assay, biochemical, kinetic NADPH detection (AID 540269). Conditions: purified PfG6PD-6PGL.

This note sets out measurements from PubChem BioAssay AID540269 (Sanford-Burnham Center for Chemical Genomics, 2011).

The IC50 is the concentration needed to halve the response being measured.

Calls of active or inactive are those of the source. No rule for the calls is given here.

In the case of `O=S(=O)(Nc1ccc(Cl)cc1)c1ccc(N2CCOCC2)c(NC(=S)NCCN2CCOCC2)c1`, the IC50 was > 80 µM (inactive).
For `COc1ccc2ccccc2c1C1CC(=O)N2CN(C3CCCCC3)CSC2=C1C#N` (stereo not given) the value was > 80 µM (inactive); for `CN(C)c1ccc(C=c2c3cc([N+](=O)[O-])ccc3n3c2cc(-c2ccccc2)[n+]3C)cc1`, 35.1 µM; for `O=S(=O)(Nc1ccccc1F)c1cccc(NC(=S)NCCN2CCOCC2)c1`, 50.2 µM.
For `COc1ccc(CNC(=O)Cc2cn(C)c3ccccc23)c(OC)c1` the value was > 80 µM (inactive); for `O=c1c2ccccc2sn1-c1ccccc1`, 9.73 µM; for `O=C(O)CSc1cc(NS(=O)(=O)c2ccc(Cl)cc2)c2ccccc2c1O`, 46.3 µM.
The same measure for `C[C@]12CC[C@@H]3c4cc(O)c(O)cc4CC[C@H]3[C@@H]1CC[C@@H]2O`: 25 µM; for `[O-]/[N+](=C\c1ccco1)c1ccc(Cl)cc1`: 76.7 µM.
`COC(=O)CCC(=O)OC1(C)C(=O)C2=CN(c3ccc(OC)cc3)C(c3ccc(OC)cc3)=CC2=C(Br)C1=O` (stereo not given): the IC50 was > 80 µM (inactive).
For `COc1ccc(C(=O)Nc2sc3c(c2C(=O)O)CC(C)(C)OC3)cc1` the value was 40.6 µM; for `O=[N+]([O-])c1ccc2c(c1)-c1ccccc1C2O` (stereo not given), 42.9 µM.
The same measure for `CC1(OC(=O)C2CCCC2)C(=O)C=C2C=C(c3ccsc3)N(CC3CC3)C=C2C1=O` (stereo not given): > 80 µM (inactive); for `CCOC(=O)c1c(C2COc3ccccc3O2)csc1NC(=O)c1ccco1` (stereo not given): > 80 µM (inactive).
For `Cc1ccc(NC(=O)c2cc(N3C(=O)C=CC3=O)ccc2Cl)cc1C` the value was 43.5 µM; for `CCOc1ccc(NC(=O)Cn2sc3nc(C)cc(C)c3c2=O)cc1`, 37.5 µM; for `CCC(CO)[n+]1c(C)cc(/C=C2\Sc3ccccc3N2Cc2ccccc2)cc1C` (stereo not given), 24.3 µM.
With `C/C(Cn1nnc([N+](=O)[O-])n1)=N\NC(=O)c1ccccc1O`, the IC50 was 46.3 µM.
The same measure for `COc1cc(N)c2ncccc2c1Cl`: 45.8 µM; for `C=CCOc1c(Cl)cc(CNc2ccc3[nH]c(=O)[nH]c3c2)cc1OC`: > 80 µM (inactive).
For `CN1CCN(C(=S)c2ccc(Br)cc2)CC1` the value was > 80 µM (inactive); for `C/C(Cn1nnc([N+](=O)[O-])n1)=N\NC(=O)c1ccc(O)cc1`, > 80 µM (inactive).
For `O=c1c2cc(F)ccc2sn1-c1ccc(F)cc1`, the IC50 was 23.4 µM.
The same measure for `CC1CN(c2ccccc2)NC1=O` (stereo not given): > 80 µM (inactive); for `Cc1cccc(C(=O)Nc2sc3c(c2C(=O)O)CCCC3)c1`: 32.9 µM.
For `COc1ccc(N2C(=O)/C(=C/c3cccs3)NC2=S)cc1`, the IC50 is 40.2 µM.
The same measure for `COc1cc(CNc2ccc(N3CCCC3)cc2)cc(Cl)c1OC`: > 80 µM (inactive); for `O=c1c2ccccc2sn1-c1ccc(Cl)cc1Cl`: 12.9 µM.
For `COc1cc(N=c2ssnc2Cl)cc(OC)c1OC` the value was 34 µM; for `COC1=CC(=O)C=C(OC)C1(O)CC(C)=O`, > 80 µM (inactive).
For `CN1/C(=C\C(=O)c2cccs2)Sc2ccccc21`, the concentration for half-maximal inhibition (IC50) was 26.1 µM.
The same measure for `COc1ccc2nc3cc(Cl)ccc3c(Nc3ccc(O)c(CN4CCN(C)CC4)c3)c2c1`: > 80 µM (inactive); for `O=c1[nH]sc2cc(F)ccc12`: 56.2 µM.
Turning to `Cc1ccc(/C=C/C(=O)N2CCN(S(=O)(=O)c3ccc(C)c(C)c3)CC2)o1`, the IC50 is > 80 µM (inactive).
For `COCCn1nnnc1C(c1cc2cc(OC)c(OC)cc2[nH]c1=O)N1CCN(c2ccc(O)cc2)CC1` (stereo not given) the value was 30.3 µM; for `COc1cc(-c2nnc3n2N=C(c2ccccc2)CS3)cc(OC)c1OC`, > 80 µM (inactive); for `Cc1ccc(-n2c(N)c(C(=O)N3CCN(C)CC3)sc2=S)cc1`, 70.6 µM.
For `O=[N+]([O-])c1ccc(-[n+]2ccc3ccccc3c2)c([N+](=O)[O-])c1` the value was > 80 µM (inactive).
For `COc1cc(O)c(C(=O)O)c(-c2cc(O)c(O)cc2C)c1` the value was 19.4 µM; for `Cc1cc(C)nc(NC(N)=NCCc2ccccc2)n1`, > 80 µM (inactive).
As to `O=C(Sc1n[nH]c(=O)[nH]c1=O)c1ccccc1`, the IC50 is 22.8 µM.
On to `O=C(CCSCCC(=O)NN=Cc1ccccc1)NN=Cc1ccccc1`, for which the IC50 was > 80 µM (inactive).
For `Nc1cc(N)c(OCC(F)(F)F)cc1OCC(F)(F)F` the value was > 80 µM (inactive); for `Cc1ccc(-c2nn(C)c(=O)c3ccccc23)cc1CNC(=O)/C=C/c1ccccc1`, 68.6 µM.
For `CCCn1cc(S(=O)(=O)CC(=O)Nc2ccc(OC)cc2OC)c2ccccc21` the value was > 80 µM (inactive); for `C=CCN1CCc2cccc3c2[C@H]1Cc1ccc(O)c(O)c1-3`, > 80 µM (inactive).
The same measure for `CCN(CC)c1ccc(NC(=O)c2cccc(C)c2)cc1S(=O)(=O)Nc1ccccc1OC`: 31.3 µM.
Consider `Cc1c(C(=O)N(Cc2ccccc2Cl)C2CCS(=O)(=O)C2)oc2ccccc12` (stereo not given), for which the IC50 was > 80 µM (inactive).
For `CN1CCN(C(=O)c2sc(=S)n(-c3ccccc3)c2N)CC1` the value was 50.3 µM; for `CN(C)c1ccc(/C=C/c2ccc3c4ccccc4ccc3[n+]2-c2ccccc2)cc1`, 44.3 µM.
For `COc1ccc(/C=C/c2nc3ccccc3n2Cc2ccc(OC)c(OC)c2)cc1` the value was 51.1 µM.
For `Clc1ccc2nc(-c3ccc4c(c3)OCO4)cn2c1` the value was 40.7 µM; for `COc1cc(CN2CCCC(C(=O)c3ccc4c5c(cccc35)CC4)C2)cc(OC)c1O` (stereo not given), 28.4 µM.
For `[O-]/[N+](=C\c1ccccc1)c1ccc(Br)cc1`, the IC50 is > 80 µM (inactive).
The same measure for `c1cncc(CNc2ccc3c(c2)OCO3)c1`: > 80 µM (inactive); for `Cc1ccc(/C=C/C(=O)NCc2ccc(S(N)(=O)=O)cc2)o1`: > 80 µM (inactive).
The same measure for `Oc1cc(CNCc2ccccc2)c(O)cc1CNCc1ccccc1`: 53.7 µM.
For `O=c1c2cc([N+](=O)[O-])ccc2sn1-c1ccccc1` the value was 15.9 µM.
Take `CCOc1cc(NCc2ccccc2)c2ncn(C(C)C)c2c1`: the IC50 was > 80 µM (inactive).
For `COC(=O)[C@H](CCSC)NC(=O)c1cc2c(cn1)[nH]c1ccccc12` the value was 20.2 µM.
The same measure for `COc1cc(N)c2ncccc2c1SC`: 38.8 µM; for `Cc1ccc(C(=O)Nc2nnc(S(=O)(=O)N3CCC(C)CC3)s2)cc1`: 24.1 µM.
Regarding `OCc1ccccc1SSc1ccccc1CO`, the half-inhibitory concentration (IC50) is 53.1 µM.
As for `CCOC(=O)c1ccc(-n2c(N)c(C(=O)NCC3CCCO3)sc2=S)cc1` (stereo not given), the IC50 is > 80 µM (inactive).
For `O=C(CNC(=O)c1ccccc1)NCC(=O)OCC(=O)c1ccc([N+](=O)[O-])cc1` the value was 67.1 µM; for `COc1cc(/C=N/n2cc(-c3ccccc3)[nH]c2=S)cc(OC)c1O`, 11.2 µM.
For `CN(C)c1cccc2c1c(NC(=O)c1ccc(F)cc1)nn2C` the value was > 80 µM (inactive); for `Cc1ccc(NS(=O)(=O)c2ccccc2Cl)c2c1CC(C)(C)O2`, > 80 µM (inactive).
For `COc1ccccc1NS(=O)(=O)c1cc(NC(=O)c2ccc(Cl)nc2)ccc1N1CCCC1` the value was 32.1 µM.
As to `O=C(N/N=C/c1cccc([N+](=O)[O-])c1)C(=O)N1CCCCCC1`, the IC50 was > 80 µM (inactive).
The same measure for `CC1CCc2c(nc3sc4c(c3c2N)CCCC4)C1` (stereo not given): > 80 µM (inactive); for `O=C(Nc1ccc(N2CCCC2)cc1)c1cccc(-c2cc3ccccc3oc2=O)c1`: > 80 µM (inactive).
The same measure for `O=C(Cn1sc2ccccc2c1=O)Nc1ccc(Br)cc1`: 17 µM; for `COc1cc(NCc2ccccc2)c2ncn(Cc3ccccc3)c2c1`: > 80 µM (inactive).
Regarding `CC(=O)Nc1ccc(S(=O)(=O)/N=C2\C(=O)c3ccccc3C([O-])=C2n2cc[n+](-c3ccccn3)c2)cc1`, the IC50 is > 80 µM (inactive).
The same measure for `Cc1cc(C)c2c(=O)n(CC(=O)Nc3ccc(Br)c(C)c3)sc2n1`: 58.5 µM; for `O=C(Nc1nnc(S(=O)(=O)N2CCCCC2)s1)c1ccc(Cl)cc1`: 25.6 µM.
For `COc1ccc(C(=O)Nc2cc(Cl)ccc2C(=O)O)cc1` the value was 17.7 µM; for `O=C(CSc1nc2ccccc2[nH]1)NC1CCCc2ccccc21` (stereo not given), > 80 µM (inactive).
For `Cc1ccc(-c2c(C(=O)N/N=C/c3cccs3)nnn2-c2nonc2N)cc1` the value was > 80 µM (inactive); for `Cc1ccccc1-n1sc2cc(F)ccc2c1=O`, 10.2 µM.
As to `O=C(Nc1nnc(S(=O)(=O)N2CCCCCC2)s1)c1cccc(Br)c1`, the IC50 is 14.1 µM.
As to `CNS(=O)(=O)c1ccc(-c2ccc(C=C3C(=O)NC(=O)NC3=O)o2)cc1`, the IC50 is 33.6 µM.
For `Oc1ccc(/C=N/N=C(c2ccccc2)c2ccccc2)c(O)c1O` the value was 54.6 µM.
Take `CCC(=O)OCCNc1cc(Sc2nc3ccccc3s2)c2nonc2c1[N+](=O)[O-]`: the IC50 is > 80 µM (inactive).
For `CC1COCC(C)N1C1=C(Cl)C(=O)c2ccccc2C1=O` (stereo not given) the value was 42.4 µM.
For `COc1cccc(-c2c(C(=O)N/N=C/c3ccc(C)s3)nnn2-c2nonc2N)c1` the value was 53.5 µM.
For `CC(C)c1cc2c(c(O)c1O)[C@@]13CCCC(C)(C)C1CC2OC3=O` (stereo not given in full), the IC50 is 58.4 µM.
Consider `CCN1CCCC1CNC(=O)c1ccc2c(c1)NC(=O)/C(=C\c1ccc(C)cc1)S2` (stereo not given), for which the IC50 was 6.79 µM.
For `CCOC(=O)c1cnc2ccc(C)cc2c1Sc1ccccc1C(=O)OC` the value was > 80 µM (inactive); for `CCOc1ccc2ccccc2c1/C=N/NC(=O)c1ccncc1`, > 80 µM (inactive); for `Cc1ccc(CNc2ccc(O)cc2)cc1`, 45.1 µM.
For `COc1ccc(C(=O)ON=C2C=C(C)C(=O)C(C)=C2)cc1`, the IC50 was > 80 µM (inactive).
The same measure for `CN=c1scc(C)n1/N=C/c1ccc(O)c(O)c1O`: 24.8 µM; for `COc1ccc(N=C2C(=S)N(c3ccc(OC)cc3)C(=NS(=O)(=O)c3ccccc3)N2c2ccccc2)cc1`: > 80 µM (inactive).
